Test results from patent US5420143A, “Piperidine derivatives for treating allergy” (Kowa Co., Ltd., priority 1993, dated 1995).

How the values were obtained:
[1] = test system: ileum isolated from guinea pigs, contraction induced by leukotriene D4; experiment: Inhibition of leukotriene D4 induced contraction of isolated guinea pig ileum (antileukotriene activity); conditions: Average ± S.D.; leukotriene D4 1×10^-8 M; 30 minutes incubation with test compound; test compound concentration not given
Experimental: (§1) Antihistamine activity and antileukotriene activity:
(§2) The first three constant constractions induced by histamine (1×10^-5 M) or leukotriene D4 (1×10^-8 M) were used as the reference for the calculation of the inhibitory ratio. After repeated washings until contraction movement recurred, ileal strip was incubated with the test compound for 30 minutes. The contraction test was then conducted again using histamine or leukotriene D4. The inhibitory ratio (%) of the test compound on the ileum was calculated according to the following equation: [formula]

[2] = test system: ileum isolated from guinea pigs, contraction induced by histamine; experiment: Inhibition of histamine-induced contraction of isolated guinea pig ileum (antihistamine activity); conditions: Average ± S.D.; histamine 1×10^-5 M; 30 minutes incubation with test compound; test compound concentration not given
Experimental: as §1, §2

Leukotriene D4 receptors = molecular target: T1, Leukotriene D4 receptors (Cavia porcellus, UniProt Q2NNR5); experiment: Binding assay on Leukotriene D4 receptors (guinea-pig lung membrane protein, [^3 H]-leukotriene D4)
T1 construct: Preparation of guinea-pig lung membrane protein; from tissue; host or cells: guinea-pig lung membranes
T1 sequence (Q2NNR5 1-340): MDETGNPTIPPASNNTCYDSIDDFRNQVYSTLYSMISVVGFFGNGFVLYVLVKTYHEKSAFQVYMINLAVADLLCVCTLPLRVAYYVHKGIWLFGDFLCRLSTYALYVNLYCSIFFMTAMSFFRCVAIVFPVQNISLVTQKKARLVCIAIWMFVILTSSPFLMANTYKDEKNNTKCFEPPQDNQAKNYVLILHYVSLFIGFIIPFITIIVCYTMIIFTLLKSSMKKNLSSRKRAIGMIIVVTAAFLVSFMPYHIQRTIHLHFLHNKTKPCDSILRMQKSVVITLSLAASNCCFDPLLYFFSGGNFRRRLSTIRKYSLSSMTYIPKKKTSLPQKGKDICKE
From the text: Binding assay on Leukotriene D4 receptors:
a) Preparation of guinea-pig lung membrane protein:

| Structure (SMILES) | Inhibition vs leukotriene D4 induced contraction (%) [1] [%] | Inhibition vs histamine-induced contraction (%) [2] [%] | antileukotriene activity (nature of the activity) (Leukotriene D4 receptors; binding assay on leukotriene D4 receptors) | Kd (Leukotriene D4 receptors; read-out: binding affinity on leukotriene D4 receptors (Kd)) [nM] |
| --- | --- | --- | --- | --- |
| CC(C)(C)c1ccc(C(O)CCCN2CCC(C(O)(c3ccccc3)c3ccccc3)CC2)cc1 (centres unmarked) [Terfenadine] | 0 | 5 ± 1 |  |  |
| O=c1cc(-c2nnn[nH]2)oc2cc(OCCCN3CCC(=C(c4ccccc4)c4ccccc4)CC3)ccc12 [Compound (1), 7-[3-(4-Diphenylmethylenepiperidin-1-yl)propyloxy]-2-(5-tetrazolyl)-4-oxo-4H-benzopyran] | 15 ± 1 | 52 ± 7 | antagonistic | 2320 |
| CCCc1c(OCC(O)COc2ccc3c(=O)cc(C(=O)O)oc3c2CCC)ccc(C(C)=O)c1O (centres unmarked) [FPL-55712] | 11 ± 4 | 0 |  |  |
